Data published in patent US8114619B2, “Methods for diagnosis and optimizing treatment of multiple sclerosis” (The Johns Hopkins University, priority 2006, dated 2012).
Entries after “also recorded” stand apart in the source; their conditions may differ. Non-standard residues stand in square brackets, D forms with d. Residues, ends and D or L forms follow the SMILES beside them. *: point of attachment. Sta = CC(C)C[C@H](N)[C@@H](O)CC(=O)O; Isovaleryl = CC(C)CC(=O)*; 4Abz = Nc1ccc(C(=O)O)cc1; NHOH = ON*

Legend:
[1] = tested on: rat mixed hippocampal cultures; assay: neuroprotection against HIV-1 Tat toxicity; format: cell-based; conditions: for protection from HIV-1 Tat toxicity: 1 hour preincubation
Source text: (§1) We sought to evaluate the protective efficacy of a number of modified terpenoid compounds against the against many different neurotoxins, ranging from the chemotoxic 6-OHDA, NMDA, 3-nitropropionic acid (3-NP), and viral proteins such as Tat and gp120. Thus, we established an in vitro neuroprotection assay using rat mixed hippocampal cultures, in which we evaluated the protective efficacy of neuroprotective compounds disclosed herein. The oxidative stressor 3-NP was used to elicit toxicity in the rat hippocampal cultures to mimic the oxidative damage, reactive oxygen species production and ensuing neurodegeneration resulting from HIV infection. Another measure of neurotoxicity which results from HIV infection was evaluated by exposure of the hippocampal cultures to HIV-1 Tat (Li et al (2005), Neurotox Res, 8(1-2):119-134).
(§2) Rat mixed hippocamal neuronal cultures were generated from freshly dissected rat hippocampi (embryonic day 18) in neurobasal media containing 5% fetal bovine serum and 2% B27 supplement. The cells were plated into 96 well plates at a density of 4×10^5 cells/mL and routinely used on days 11-14 following culturing. Cell viability was assessed with MTT [3-(4,5-dimethylthiazol-2-yl)-2,5-diphenyltetrazolium bromide] assay. The MTT assay is based on the ability of a mitochondrial dehydrogenase enzyme from viable cells to cleave the tetrazolium rings of the pale yellow MTT and form dark blue formazan crystals. See Mosmann (1983), J Immunol Methods, 65(1-2):55-63. These crystals are largely impermeable to cell membranes, and thus accumulate within healthy cells. The resultant formazan precipitates are solubilized with DMSO and read on a multiwell scanning spectrophotometer (ELISA reader). The number of surviving cells is directly proportional to the level of the formazan product created.
(§3) Cultures were preincubated with GPI 1046 or Resveratrol for one hour prior to an 18 hour exposure to 3 mM 3-NP. […] The same neuroprotective compounds were evaluated for efficacy against HIV-1 Tat protein toxicity using the same 1 hour preincubation protocol.

[2] = tested on: rat mixed hippocampal cultures; assay: in vitro neuroprotection assay against 3-NP, MTT viability; conditions: for protection from oxidative damage elicited by 3-NP: preincubated one hour prior to 18 hour exposure to 3 mM 3-NP
Source text: 5, 2007. In Tables 5 and 6 “% Protection vs 3-NP” refers to the increase in cultured neuron viability in the presence of the oxidative stressor 3-nitropropionic acid. For details of the assay, see Example 3 below.
as §1, §2
Mixed hippocampal cultures were incubated with 3-NP (0.5-10 mM) for 18 hours and then assessed for viability using an MTT assay.
as §3

[3] = tested on: cystatin C; assay: effect of protease inhibitors on cystatin C cleavage in CSF; format: biochemical, human; conditions: control CSF with only full length cystatin C, room temperature 48 hours; FN-439 and pepstatin A 500 ug/ml
Description: We incubated control CSF which contained only the full length cystatin C at room temperature for 48 hours in the presence of various protease inhibitors and monitored it for the presence of the 12.5 kD fragment.

[4] = tested on: rat neuronal cultures; assay: protection against 6-OHDA neurotoxicity; format: cell-based
Source text: as §1
(§4) Rat mixed hippocamal neuronal cultures were generated from freshly dissected rat hippocampi (embryonic day 18) in neurobasal media containing 5% fetal bovine serum and 2% B27 supplement. The cells were plated into 96 well plates at a density of 4×10^5 cells/mL and routinely used on days 11-14 following culturing. Cell viability was assessed with MTT [3-(4,5-dimethylthiazol-2-yl)-2,5-diphenyltetrazolium bromide] assay. […] The resultant formazan precipitates are solubilized with DMSO and read on a multiwell scanning spectrophotometer (ELISA reader). […]

[5] = tested on: rat neuronal cultures; assay: protection against NMDA excitotoxicity; format: cell-based
Source text: as §1, §4

[6] = tested on: human fetal neuronal cultures; assay: protection of human fetal neurons against 3-NP; format: cell-based
Source text: (§5) Finally, we sought to determine if the compounds tested in rat neuronal cultures would also be effective on cultured human fetal neurons.

[7] = tested on: human fetal neuronal cultures; assay: protection of human fetal neurons against 6-OHDA; format: cell-based
Source text: as §5

[8] = molecular target: T1, cathepsin B (Homo sapiens, UniProt P07858); assay: cathepsin B functional assay; format: biochemical; conditions: for inhibition of cathepsin B activity: untreated recombinant protein, or protease alone; for ability to inhibit cathepsin B after treatment of cystatin C with MMP-2: recombinant cystatin C treated with MMP-2; for cathepsin B activity after treatment of cystatin C with cathepsin D: recombinant cystatin C treated with cathepsin D
T1 construct: Cell lysates were prepared using a lysis buffer provided with the assay kit; host or cells: THP-1 cell lysate
Description: The activity of cathepsin B, a substrate of cystatin C, was measured using an activity assay kit (Biovision Research Products, Mountain View, Calif.). This fluorescence-based assay utilizes the cathepsin-B substrate sequence Arg-Arg labeled with amino-4-trifluoromethyl coumarin […]. Cathepsin-B cleaves the synthetic substrate RR-AFC to release free AFC. THP-1 cells (a monocytic cell line) were used as a source of cathepsin B. Cell lysates were prepared using a lysis buffer provided with the assay kit. Cell lysates from 1×10^6 cells were added to 50 μl of CSF in a microtiter plate (q.s. 100 μl). Two μl of substrate Ac-Arg-Arg-AFC was added to each well and incubated for 1 hr at 37° C. Absorbance was measured using a fluorescent plate reader with a 400 nm excitation filter and 505 nm emission filter. Controls included reaction buffer alone and a cathepsin B inhibitor provided in the kit. All samples were analyzed in duplicate.
Recombinant cystatin C was produced and the ability of MMP-2 and cathepsin D to cleave the recombinant protein was confirmed. As expected, cathepsin D cleaved cystatin C at four different sites, and yielded a 12.5 kD fragment following cleavage from the C terminal region (9). In contrast, MMP-2 cleaved cystatin C at three unique sites (GK, FC, and GT which correspond to amino acids 4,5; 96,97 and 108,109). Recombinant cystatin C was treated with either MMP-2 or cathepsin D and its activity monitored by a cathepsin B functional assay using a kit from Biovision Research Products, Mountain View, Calif. The assay was performed as previously described (4). […] Cathepsin D and MMP-2 alone had no effect on cathepsin B activity (FIG. 9). These observations confirmed that C terminal fragmentation of cystatin C leads to a gain in activity while cleavage in other regions including the N terminal region leads to a loss or decrease of activity of cystatin C.

[9] = listed as Recombinant cystatin C

CC(=O)O[C@@H]1CC2C(C)(C)C(=O)C=C[C@]2(C)C2CC[C@]3(C)[C@@H](c4ccoc4)OC(=O)[C@H]4O[C@]43[C@@]21C (stereo partly drawn) [GEDUNIN]
neuroprotection from HIV-1 Tat toxicity at 1-10 μM ([1]; 1-10 μM): nearly complete neuroprotection | protection from HIV-1 Tat toxicity [1]: dose dependently protected

CCC(C)(C)C(=O)C(=O)N1CCC[C@H]1C(=O)OCCCc1cccnc1 [GPI 1046, reference compound]
protection from HIV-1 Tat toxicity [1]: protected hippocampal neurons from Tat toxicity | protection from oxidative damage elicited by 3-NP [2]: significantly protected

CC(C)C[C@@H](NC(=O)[C@@H]1CCCN1C(=O)CNC(=O)c1ccc(N)cc1)C(=O)N[C@H](C)C(=O)NO [FN-439] (H-[4Abz]GP[dL][dA]-{NHOH})
effect on cleavage of cystatin C (12.5 kD fragment) [3]: showed inhibition of the breakdown of cystatin C

CC1(C)O[C@H]2CC(=O)OC[C@]23[C@H]2CC[C@@]4(C)[C@H](c5ccoc5)OC(=O)[C@H]5O[C@]54[C@]2(C)C(=O)C[C@@H]13 [Limonin]
protection from HIV-1 Tat toxicity [1]: dose dependently protected | protection against 6-OHDA at highest dose ([4]; 10 μM, highest dose tested): complete protection | block of 6-OHDA neurotoxicity ([4]; dose-dependent): dose-dependently blocked | protection against NMDA at highest dose ([5]; 10 μM, highest dose tested): complete protection | block of NMDA neurotoxicity ([5]; dose-dependent): dose-dependently blocked | protection against 3-NP [6]: dose-dependently protected | protection against 6-OHDA [7]: dose-dependently protected

Oc1ccc(C=Cc2cc(O)cc(O)c2)cc1 [RESVERATROL, reference compound]
protection from HIV-1 Tat toxicity [1]: protected hippocampal neurons from Tat toxicity | protection from oxidative damage elicited by 3-NP [2]: significantly protected

CC(C)CC(=O)N[C@H](C(=O)N[C@H](C(=O)N[C@@H](CC(C)C)[C@@H](O)CC(=O)N[C@@H](C)C(=O)N[C@@H](CC(C)C)[C@@H](O)CC(=O)O)C(C)C)C(C)C [pepstatin A] (Isovaleryl-VV[Sta]A[Sta]-OH)
effect on cleavage of cystatin C (12.5 kD fragment) [3]: showed inhibition of the breakdown of cystatin C; also recorded: significantly prevented cleavage of cystatin C

C[C@@H]1[C@H](O)[C@@H](C)/C=C/C=C/CC/C=C/C=C/C=C/C=C/C(O[C@H]2O[C@H](C)[C@@H](O)[C@H](N)[C@@H]2O)CC2O[C@](O)(CC(O)C(O)CCC(O)CC(O)CC(O)CC(=O)O[C@H]1C)CC(O)C2C(=O)O (stereo partly drawn) [NYSTATIN]
% Protection vs 3NP ([2]; increase in cultured neuron viability in the presence of 3-nitropropionic acid (Table 6)): 46.72%

Cathepsin D: protease that cleaves cystatin C from the C terminal region
inhibition of cathepsin B activity [8]: no effect

O=C(O)CC[N+](=O)[O-] [Compound 3-NP, 3-nitropropionic acid]
cytotoxicity ([2]; 3 mM 3-NP, 18 hours, MTT assay): 25-35%

B1: MMP-2: matrix metalloprotease that cleaved cystatin C at three sites (protein)
chain: YNFFPRKPKWDKNQITYRIIGYTPDLDPETVDDAFARAFQVWSDVTPLRFSRIHDGEADIMINFGRWEHGDGYPFDGKDGLLAHAFAPGTGVGGDSHFDDDELWTLGEGQVVRVKYGNADGEYCKFPFLFNGKEYNSCTDTGRSDGFLWCSTTYNFEKDGKYGFCPHEALFTMGGNAEGQPCKFPFRFQGTSYDSCTTEGRTDGYRWCGTTEDYDRDKKYGFCPETAMSTVGGNSEGAPCVFPFTFLGNKYESCTSAGRSDGKMWCATTANYDDDRKWGFCPDQGYSLFLVAAHEFGHAMGLEHSQDPGALMAPIYTYTKNFRLSQDDIKGIQELYGASPDIDLGTGPTPTLGPVTPEICKQDIVFDGIAQIRGEIFFFKDRFIWRTVTPRDKPMGPLLVATFWPELPEKIDAVYEAPQEEKAVFFAGNEYWIYSASTLERGYPKPLTSLGLPPDVQRVDAAFNWSKNKKTYIFAGDKFWRYNEVKKKMDPGFPKLIADAWNAIPDNLDAVVDLQGGGHSYFFKGAYYLKLENQSLKSVKFGSIKSDWLGC
inhibition of cathepsin B activity [8]: no effect

B2: full length cystatin C: recombinant cystatin C, inhibitor of cysteine proteases including cathepsin B (protein)
chain: SSPGKPPRLVGGPMDASVEEEGVRRALDFAVGEYNKASNDMYHSRALQVVRARKQIVAGVNYFLDVELGRTTCTKTQPNLDNCPFHDQPHLKRKAFCSFQIYAVPWQGTMTLSKSTCQDA
ability to inhibit cathepsin B after treatment of cystatin C with MMP-2 [8, 9]: inhibition of CysC activity | ability to inhibit cathepsin B after treatment of cystatin C with MMP-2 ([8]; listed as cystatin C): decrease in its ability to inhibit cathepsin B activity | cathepsin B activity after treatment of cystatin C with cathepsin D [8, 9]: further enhanced | cathepsin B activity after treatment of cystatin C with cathepsin D ([8]; listed as cystatin C): further decrease in cathepsin B activity | inhibition of cathepsin B activity [8]: significant inhibition
